From ChEMBL document CHEMBL1201862, “PubChem BioAssay data set” (2004)
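48-hour exposure; five concentrations; linearly interpolated endpoints. Here, GI50 denotes the concentration required for 50% inhibition of growth.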 The source made the active and inactive calls. Rule as the data show it: active = GI50 up to about 1.1 µM and inactive = higher.

Assays:
Assay in all cases: DTP human tumour cell line panel, 48 h
786-0 = tested on: 786-0
A549 = tested on: A549
ACHN = tested on: ACHN
CAKI-1 = tested on: CAKI-1
CCRF-CEM = tested on: CCRF-CEM
COLO 205 = tested on: COLO 205
DLD-1 = tested on: DLD-1
DMS-114 = tested on: DMS-114
DMS-273 = tested on: DMS-273
HCC 2998 = tested on: HCC 2998
HCT-116 = tested on: HCT-116
HCT-15 = tested on: HCT-15
HL-60 = tested on: HL-60
HOP-62 = tested on: HOP-62
HOP-92 = tested on: HOP-92
HT-29 = tested on: HT-29
IGROV-1 = tested on: IGROV-1
K562 = tested on: K562
KM-20L2 = tested on: KM-20L2
KM12 = tested on: KM12
LXFL 529 = tested on: LXFL 529
M14 = tested on: M14
M19-MEL = tested on: M19-MEL
MOLT-4 = tested on: MOLT-4
Malme-3M = tested on: Malme-3M
NCI-H226 = tested on: NCI-H226
NCI-H23 = tested on: NCI-H23
NCI-H460 = tested on: NCI-H460
NCI-H522 = tested on: NCI-H522
OVCAR-3 = tested on: OVCAR-3
OVCAR-4 = tested on: OVCAR-4
OVCAR-5 = tested on: OVCAR-5
OVCAR-8 = tested on: OVCAR-8
RPMI-8226 = tested on: RPMI-8226
SF-268 = tested on: SF-268
SF-295 = tested on: SF-295
SF-539 = tested on: SF-539
SK-MEL-28 = tested on: SK-MEL-28
SK-MEL-2 = tested on: SK-MEL-2
SK-MEL-5 = tested on: SK-MEL-5
SNB-19 = tested on: SNB-19
SNB-75 = tested on: SNB-75
SR = tested on: SR
SW-620 = tested on: SW-620
TK-10 = tested on: TK-10
U-251 = tested on: U-251
UACC-257 = tested on: UACC-257
UACC-62 = tested on: UACC-62
UO-31 = tested on: UO-31
A498 = tested on: A498
EKVX = tested on: EKVX
HOP-18 = tested on: HOP-18
LOX IMVI = tested on: LOX IMVI
RXF 393 = tested on: RXF 393
SK-OV-3 = tested on: SK-OV-3
SN12C = tested on: SN12C
SNB-78 = tested on: SNB-78

For COc1ccc(C(=O)OCC2OC(n3cnc4c(=S)nc[nH]c43)C(OC(=O)c3ccc(OC)cc3)C2OC(=O)c2ccc(OC)cc2)cc1 (stereo not drawn), the GI50 (786-0) was 15.3 µM (inactive), the GI50 (A549) was > 100 µM (inactive) and the GI50 (ACHN) was 76.9 µM (inactive). For the same compound, the GI50 (CAKI-1) was 48.6 µM (inactive), the GI50 (CCRF-CEM) was 8.47 µM (inactive) and the GI50 (COLO 205) was > 100 µM (inactive). For the same compound, the GI50 (DLD-1) was 11.6 µM (inactive), the GI50 (DMS-114) was 5.65 µM (inactive) and the GI50 (DMS-273) was 15 µM (inactive). For the same compound, the GI50 (HCC 2998) was 9.35 µM (inactive), the GI50 (HCT-116) was 10.5 µM (inactive) and the GI50 (HCT-15) was 47.2 µM. The GI50 (HL-60) was 26.2 µM (inactive), the GI50 (HOP-62) was 3.18 µM (inactive) and the GI50 (HOP-92) was 6.05 µM (inactive). For the same compound, the GI50 (HT-29) was 24.9 µM (inactive), the GI50 (IGROV-1) was 57 µM (inactive) and the GI50 (K562) was 3.27 µM (inactive). The GI50 (KM-20L2) was 8.47 µM (inactive), the GI50 (KM12) was 45.6 µM (inactive) and the GI50 (LXFL 529) was > 100 µM (inactive). For the same compound, the GI50 (M14) was 3.36 µM (inactive), the GI50 (M19-MEL) was > 100 µM (inactive) and the GI50 (MOLT-4) was 22.5 µM (inactive). The GI50 (Malme-3M) was 32.2 µM (inactive), the GI50 (NCI-H226) was 30.1 µM (inactive) and the GI50 (NCI-H23) was 39.7 µM (inactive). The GI50 (NCI-H460) was 43.1 µM (inactive), the GI50 (NCI-H522) was 7 µM (inactive) and the GI50 (OVCAR-3) was 5.06 µM (inactive). The GI50 (OVCAR-4) was 7.82 µM (inactive), the GI50 (OVCAR-5) was 23.1 µM (inactive) and the GI50 (OVCAR-8) was 28.5 µM (inactive). For the same compound, the GI50 (RPMI-8226) was 4.36 µM (inactive), the GI50 (SF-268) was 30.1 µM (inactive) and the GI50 (SF-295) was 33.1 µM (inactive). The GI50 (SF-539) was 20.5 µM (inactive), the GI50 (SK-MEL-28) was > 100 µM (inactive) and the GI50 (SK-MEL-2) was 12.8 µM (inactive). For the same compound, the GI50 (SK-MEL-5) was 69.2 µM (inactive), the GI50 (SNB-19) was > 100 µM (inactive) and the GI50 (SNB-75) was 7.52 µM (inactive). For the same compound, the GI50 (SR) was 14 µM (inactive), the GI50 (SW-620) was 46.9 µM (inactive) and the GI50 (TK-10) was 7.43 µM (inactive). The GI50 (U-251) was > 100 µM (inactive), the GI50 (UACC-257) was 16.8 µM (inactive) and the GI50 (UACC-62) was 13.3 µM (inactive). For the same compound, the GI50 (UO-31) was 55.1 µM (inactive).
With CCC1(O)C[C@H]2CN(CCCc3c([nH]c4ccccc34)[C@@](C(=O)OC)(c3cc4c(cc3OC)N(C)C3[C@](O)(C(=O)OC)[C@H](OC(C)=O)[C@]5(CC)C=CCN6CC[C@]43[C@H]65)C2)C1 (stereo partly drawn) the GI50 (786-0) was 0.589 µM (active), the GI50 (A498) was 1.21 µM (inactive) and the GI50 (A549) was 1.46 µM (inactive). For the same compound, the GI50 (ACHN) was > 2.92 µM (inactive), the GI50 (CAKI-1) was 2.33 µM (inactive) and the GI50 (CCRF-CEM) was 0.453 µM (active). The GI50 (COLO 205) was 0.593 µM (active), the GI50 (DLD-1) was 2.22 µM (inactive) and the GI50 (DMS-273) was 0.406 µM (active). For the same compound, the GI50 (EKVX) was 1.63 µM (inactive), the GI50 (HCC 2998) was 1.75 µM (inactive) and the GI50 (HCT-116) was 0.855 µM (active). For the same compound, the GI50 (HCT-15) was 2.99 µM, the GI50 (HL-60) was 0.621 µM (active) and the GI50 (HOP-18) was 0.146 µM (active). The GI50 (HOP-62) was 0.465 µM (active), the GI50 (HOP-92) was > 10 µM (inactive) and the GI50 (HT-29) was 0.425 µM (active). The GI50 (IGROV-1) was 2.88 µM (inactive), the GI50 (K562) was 0.354 µM (active) and the GI50 (KM-20L2) was 0.298 µM (active). The GI50 (KM12) was 0.578 µM (active), the GI50 (LOX IMVI) was 0.583 µM (active) and the GI50 (LXFL 529) was 0.581 µM (active). The GI50 (M14) was 0.726 µM (active), the GI50 (M19-MEL) was 0.902 µM (active) and the GI50 (MOLT-4) was 0.586 µM (active). For the same compound, the GI50 (Malme-3M) was 0.977 µM (active), the GI50 (NCI-H23) was 0.743 µM (active) and the GI50 (NCI-H460) was 0.557 µM (active). The GI50 (NCI-H522) was 0.194 µM (active), the GI50 (OVCAR-3) was 0.281 µM (active) and the GI50 (OVCAR-4) was 0.353 µM (active). The GI50 (OVCAR-5) was 3.34 µM (inactive), the GI50 (OVCAR-8) was 2.96 µM (inactive) and the GI50 (RPMI-8226) was 0.908 µM (active). For the same compound, the GI50 (RXF 393) was 0.834 µM (active), the GI50 (SF-268) was 1.01 µM (active) and the GI50 (SF-295) was 0.275 µM (active). For the same compound, the GI50 (SF-539) was 0.991 µM (active), the GI50 (SK-MEL-28) was 3.56 µM (inactive) and the GI50 (SK-MEL-2) was 0.63 µM (active). For the same compound, the GI50 (SK-MEL-5) was 0.333 µM (active), the GI50 (SK-OV-3) was 0.526 µM (active) and the GI50 (SN12C) was 3.61 µM (inactive). For the same compound, the GI50 (SNB-19) was 1.77 µM (inactive), the GI50 (SNB-75) was 1.35 µM (inactive) and the GI50 (SNB-78) was 0.543 µM (active). For the same compound, the GI50 (SW-620) was 0.497 µM (active), the GI50 (TK-10) was > 10 µM (inactive) and the GI50 (U-251) was 0.565 µM (active). For the same compound, the GI50 (UACC-257) was 1.34 µM (inactive), the GI50 (UACC-62) was 0.525 µM (active) and the GI50 (UO-31) was 4.38 µM (inactive).
